Measured values published in ChEMBL document CHEMBL3044562, “Survival and developmental impairment induced by the trypsin inhibitor bis-benzamidine in the velvetbean caterpillar (Anticarsia gemmatalis)” (Crop Prot, 2011).
Activity calls are given as the source filed them.

What was measured:
Assay type in all cases: functional, organism-based
Anticarsia gemmatalis [1] = assay: Insecticidal activity against Anticarsia gemmatalis (velvetbean caterpillar) assessed as reduction in survival time at over 150 ppm
Anticarsia gemmatalis [2] = assay: Insecticidal activity against Anticarsia gemmatalis (velvetbean caterpillar) assessed as reduction in survival time at > 100 ppm
Anticarsia gemmatalis [3] = assay: Insecticidal activity against Anticarsia gemmatalis (velvetbean caterpillar) assessed as specific amidolytic and esterolytic activity in midgut at 9.5 ppm
Anticarsia gemmatalis [4] = assay: Insecticidal activity against Anticarsia gemmatalis (velvetbean caterpillar) assessed as sharp decline in proteolytic activity in midgut using L-BApNA and L-TAME at 9.5 ppm
Anticarsia gemmatalis [5] = assay: Increase in protein digestibility in Anticarsia gemmatalis (velvetbean caterpillar) assessed as double the consumption at 76 ppm
Anticarsia gemmatalis [6] = assay: Effect on diet consumption in Anticarsia gemmatalis (velvetbean caterpillar) assessed as double the consumption at 76 ppm relative to control
Anticarsia gemmatalis [7] = assay: Insecticidal activity against Anticarsia gemmatalis (velvetbean caterpillar) assessed as decrease in pupa weight upto 80 ppm
Anticarsia gemmatalis [8] = assay: Insecticidal activity against Anticarsia gemmatalis (velvetbean caterpillar) assessed as prolongation of larval development upto 76 ppm
Anticarsia gemmatalis [9] = assay: Insecticidal activity against Anticarsia gemmatalis (velvetbean caterpillar) assessed as reduction in survival at > 76 ppm for more than 15 days

N=C(N)c1ccc(/N=N/Nc2ccc(C(=N)N)cc2)cc1
active: inhibition (Anticarsia gemmatalis [1]) | inhibition (Anticarsia gemmatalis [2]) | inhibition (Anticarsia gemmatalis [3]) | inhibition (Anticarsia gemmatalis [4]) | Activity (Anticarsia gemmatalis [5]) | Activity (Anticarsia gemmatalis [6]) | inhibition (Anticarsia gemmatalis [7]) | Activity (Anticarsia gemmatalis [8]) | inhibition (Anticarsia gemmatalis [9])
